pKi: −log10 of the molar value.
What was measured:
in vivo = conditions: rat, in vivo
Procedure, shortened: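 Male SD rats (n=3/group, 0.27–0.32 kg), fasted overnight, given 0.5 or 1.0 mg/kg by 30-min IV infusion, or by oral gavage. Serial plasma samples (EDTA-K2) over 24 h measured by LC/MS/MS; non-compartmental PK analysis.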

[1] = 1 uM compound, NADPH
Procedure, shortened: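 Compounds at 1 uM were incubated in duplicate with dog, rat or human liver microsomes (0.5 mg/mL protein) and an NADPH-regenerating system, sampled at 2, 12, 25, 45 and 65 minutes. Remaining parent was measured by LC/MS/MS, and Clint was calculated from the in vitro t1/2.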

[2] = 3H Human Predicted Clearance Assay (tritiated analogs); type: in vitro ADME; design: unit not given here; conditions: tritiated analogs, human liver microsomes
Description: 3H Human Predicted Clearance Assay:
For certain compounds, tritiated analogs (H^3) were prepared to further determined their human predicted clearance with increased resolution. Those studies were performed as described above using the tritiated analogs. Data from those compounds is found in Table 2 below and reported in FIG. 1 (note ATV and DRV were not tritiated).

recombinant HIV protease = recombinant HIV protease (Human immunodeficiency virus type 1 group M subtype B, UniProt P04585); assay: biochemical
Description: Inhibitor potency was measured using an enzymatic assay with a fluorogenic readout. […] After a 20-minute pre-incubation, the enzymatic reaction was initiated by the addition of the fluorogenic substrate (2-aminobenzoyl)Thr-Ile-Nle-(p-nitro)Phe-Gln-Arg (Bachem) to a final concentration of 40 μM. The total volume of the assay solution was 100 µL. The reaction was measured over 20 minutes on a Tecan Infinite M1000 plate reader using an excitation wavelength of 320 nm and a detection wavelength of 420 nm. The slopes of the progress curves were the measure of reaction rates.

Which results are given for COC(=O)N[C@H](C(=O)N[C@@H](Cc1ccc(C#Cc2ccc(N3CC4CCC(C3)N4C3COC3)nc2)cc1)[C@@H](O)CN(Cc1c(F)cc(-c2ccn(C(F)F)n2)cc1F)NC(=O)[C@@H](NC(=O)OC)C(C)(C)C(F)(F)F)C(C)(C)C(F)(F)F [Example 58, Methyl ((5S,8S,9S,14S)-11-(4-(1-(difluoromethyl)-1H-pyrazol-3-yl)-2,6-difluorobenzyl)-16,16,16-trifluoro-9-hydroxy-15,15-dimethyl-8-(4-((6-(8-(oxetan-3-yl)-3,8-diazabicyclo[3.2.1]octan-3-yl)pyridin-3-yl)ethynyl)benzyl)-3,6,13-trioxo-5-(1,1,1-trifluoro-2-methylpropan-2-yl)-2-oxa-4,7,11,12-tetraazahexadecan-14-yl)carbamate]?
Vd (in vivo; male, SD, iv): 6.68 L/kg; RAT PO F (in vivo; male, SD, po, 2.5 mg/kg): 37.2%; RAT IV CL (in vivo; iv): 8 mL/min/kg; RAT IV T1/2 (in vivo; iv): 12.8 h; Human Pred Cl. ([1]; human liver microsomes 0.5 mg/mL): <0.11 L/H/kg; Rat. Pred. Cl. ([1]; rat liver microsomes 0.5 mg/mL): 0.24 L/H/kg; 3H Human Predicted Cl. [2]: 0.05; pKi (recombinant HIV protease): 10.22

Reference: patent US10294234B2, “HIV inhibitor compounds” (priority 2017, dated 2019)
